# Counter-ions that a name gives are not always drawn. Like-named read-outs stand apart in the source and are kept apart here.
# Assays:
# 3T3 fibroblast cells = assay: cells; type: cell-based, murine; conditions: for activity at 10 µM: Mus musculus, NIH3T3, 72 h, read-out: Mammalian (3T3) cell % growth at 10 uM; for CC50: 3T3 fibroblasts, 72 hours, separate assays separated by semicolons, read-out: Mammalian cell CC50
# in vitro = type: cell-based, murine; conditions: mouse
# [1] = test system: T. cruzi (Tulahuen strain); assay: microbe, parasite or virus in culture; type: cell-based, Trypanosoma cruzi; conditions: for activity at 10 µM: read-out: T. cruzi % growth @ 10 uM (Amastigotes); for EC50: read-out: T. cruzi EC50
# How it was run: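 Tulahuen parasites expressing beta-galactosidase were added (1×10^4 trypomastigotes/well) to 3T3 fibroblasts plated 24 h earlier, 4 h before compound (10 µM final).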
# [2] = 3T3 fibroblasts, 72 hours, separate assays separated by semicolons, read-out: Mammalian cell CC50
# [3] = Trypanosoma cruzi, TULAHUEN, Fibroblast, 120 h, Table S2
# [4] = Trypanosoma cruzi, TULAHUEN, Fibroblast, 120 h, intracellular amastigotes, 5 days, separate assays separated by semicolons
# [5] = average mammalian cell CC50 divided by average T. cruzi EC50
# [6] = intracellular amastigotes, 5 days, separate assays separated by semicolons
# [7] = Trypanosoma cruzi, TULAHUEN, Fibroblast, Table S2, amastigotes
SMILES,activity at 10 µM (3T3 fibroblast cells; Table S2) [%],CC50 (in vitro; [2]) [nM],"activity at 10 µM [1, 3] [%]","EC50 [1, 4] [µM]",also measured
"Cl.OC(c1cc(C(F)(F)F)nc2c(C(F)(F)F)cccc12)C1CCCCN1 (stereo not drawn) [Mefloquine, [2,8-bis(trifluoromethyl)quinolin-4-yl](piperidin-2-yl)methanol hydrochloride]",94.7,12100,2.6,6.1,"Selectivity index [1, 5]: 2.0"
"Cl.Fc1ccc(C2CCNCC2COc2ccc3c(c2)OCO3)cc1 (stereo not drawn) [Paroxetine, 3-[(2H-1,3-benzodioxol-5-yloxy)methyl]-4-(4-fluorophenyl)piperidine hydrochloride]",100,–,6.8,3.3,"CC50 (in vitro; Mammalian cell CC50 (nM)): 18800 nM; Selectivity index [1]: 4.2; EC50 [1, 6]: 5.6 µM"
CN(C/C=C/C#CC(C)(C)C)Cc1cccc2ccccc12 [Terbinafine],–,51000,–,17.4,Selectivity index [1]: 2.9
"CSc1ccc2c(c1)N(CCC1CCCCN1C)c1ccccc1S2 (stereo not drawn) [Thioridazine, 10-[2-(1-methylpiperidin-2-yl)ethyl]-2-(methylsulfanyl)-10H-phenothiazine]",45.7,6200,19.1,–,CC50 (3T3 fibroblast cells): 8.66 µM
"CN(C)c1ccc(O)c2c1CC1CC3C(N(C)C)C(O)=C(C(N)=O)C(=O)C3(O)C(O)=C1C2=O.Cl (stereo not drawn) [Minocycline, 4,7-bis(dimethylamino)-3,10,12,12a-tetrahydroxy-1,11-dioxo-1,4,4a,5,5a,6,11,12a-octahydrotetracene-2-carboxamide hydrochloride]",83.2,> 50000,10.2,9.8,Selectivity index [1]: >5.1
NCCC(O)(P(=O)(O)O)P(=O)(O)O [Pamidronate],–,25700,–,3,"Selectivity index [1, 5]: 8.6"
"CN(C)CCC=C1c2ccccc2CCc2ccccc21 [Amitriptyline, dimethyl(3-{tricyclo[9.4.0.0^{3,8}]pentadeca-1(15),3,5,7,11,13-hexaen-2-ylidene}propyl)amine]",100,36300,15.7,3.56,"CC50 (3T3 fibroblast cells): 22 µM; Selectivity index [1, 5]: 5.7; EC50 [1, 6]: 6.6 µM"
"CCC(C)(C)C(=O)OC1CC(C)C=C2C=CC(C)C(CCC3CC(O)CC(=O)O3)C21 (stereo not drawn) [Simvastatin, 8-[2-(4-hydroxy-6-oxooxan-2-yl)ethyl]-3,7-dimethyl-1,2,3,7,8,8a-hexahydronaphthalen-1-yl 2,2-dimethylbutanoate]",–,–,–,0.4,CC50 at 72 h (in vitro; [2]): 4 µM
"CN(C)CC/C=C1/c2ccccc2Sc2ccc(Cl)cc21 [Chlorprothixene, {3-[(9Z)-2-chloro-9H-thioxanthen-9-ylidene]propyl}dimethylamine]",97.1,12900,1.8,2.35,"Selectivity index [1]: 5.2; EC50 [1, 6]: 2.6 µM"
"CC1(C)C(=O)C2OC2C2(C)C1CC(O)C1(C)C2CCC2(C)C(c3ccoc3)OC(=O)C3OC321 (stereo not drawn) [1,2alpha-EPOXYDEACETOXYDIHYDROGEDUNIN, 7-(furan-3-yl)-20-hydroxy-1,8,12,17,17-pentamethyl-3,6,14-trioxahexacyclo[9.9.0.0^{2,4}.0^{2,8}.0^{12,18}.0^{13,15}]icosane-5,16-dione]",77.3,–,7.8,–,–
"CC(=O)OC1CC2C(C)(C)C(=O)C3OC3C2(C)C2CCC3(C)C(c4ccoc4)OC(=O)C4OC43C12C (stereo not drawn) [EPOXYGEDUNIN, 7-(furan-3-yl)-1,8,12,17,17-pentamethyl-5,16-dioxo-3,6,14-trioxahexacyclo[9.9.0.0^{2,4}.0^{2,8}.0^{12,18}.0^{13,15}]icosan-20-yl acetate]",73.4,–,4.4,–,–
"C=CC(C)(O)CCC1C(=C)CC(O)C2C(C)(C)CCCC12C (stereo not drawn) [LARIXOL, 4-(3-hydroxy-3-methylpent-4-en-1-yl)-4a,8,8-trimethyl-3-methylidene-decahydronaphthalen-1-ol]",74,–,6.4,–,–
"COC(=O)CC1C(C)(C)C(OC(C)=O)C2C(OC(C)=O)C34OC2(O)C1(C)C3CCC1(C)C4=CC(=O)OC1c1ccoc1 (stereo not drawn) [[…], methyl 2-[14,18-bis(acetyloxy)-6-(furan-3-yl)-16-hydroxy-7,11,13,13-tetramethyl-4-oxo-5,17-dioxapentacyclo[13.2.1.0^{1,10}.0^{2,7}.0^{11,16}]octadec-2-en-12-yl]acetate]",89.7,–,7.2,–,–
"CCC(=C(c1ccccc1)c1ccc(OCCN(C)C)cc1)c1ccccc1 [TAMOXIFEN, {2-[4-(1,2-diphenylbut-1-en-1-yl)phenoxy]ethyl}dimethylamine]",97,–,22.5,–,–
"CN1CCCC(n2nc(Cc3ccc(Cl)cc3)c3ccccc3c2=O)CC1 (stereo not drawn) [AZELASTINE HYDROCHLORIDE, 4-[(4-chlorophenyl)methyl]-2-(1-methylazepan-4-yl)-1,2-dihydrophthalazin-1-one hydrochloride]",95.1,–,1.5,–,"EC50 ([1]; Trypanosoma cruzi, TULAHUEN, Fibroblast): 2.2 µM"
"COc1ccc(-c2oc3ccccc3c(=O)c2O)cc1OC [3-HYDROXY-3',4'-DIMETHOXYFLAVONE]",99.2,–,5.2,–,–
"CC1CCC2C(C)C(=O)OC3OC4(C)CCC1C32OO4 (stereo not drawn) [ARTEMISININ, 1,5,9-trimethyl-11,14,15,16-tetraoxatetracyclo[10.3.1.0^{4,13}.0^{8,13}]hexadecan-10-one]",77.6,–,17.5,–,"EC50 [1, 7]: 5.02 µM"
"CC(=O)OC1C(=O)C2(C)C(O)CC3OCC3(OC(C)=O)C2C(OC(=O)c2ccccc2)C2(O)CC(OC(=O)C(O)C(NC(=O)c3ccccc3)c3ccccc3)C(C)=C1C2(C)C (stereo not drawn) [PACLITAXEL, 4,12-bis(acetyloxy)-1,9-dihydroxy-15-{[2-hydroxy-3-phenyl-3-(phenylformamido)propanoyl]oxy}-10,14,17,17-tetramethyl-11-oxo-6-oxatetracyclo[11.3.1.0^{3,10}.0^{4,7}]heptadec-13-en-2-yl benzoate]",–,–,–,–,"activity at 10 µM (3T3 fibroblast cells; Table S1): 58.1%; activity at 10 µM ([1]; Trypanosoma cruzi, TULAHUEN, Fibroblast, 120 h, Table S1): 0.2%"
"N=C(N)c1ccc(OCCCCCOc2ccc(C(=N)N)cc2)cc1 [Pentamidine, 2-hydroxyethane-1-sulfonic acid; 4-{[5-(4-carbamimidoylphenoxy)pentyl]oxy}benzene-1-carboximidamide]",94.8,> 50000,17.6,0.181,"EC50 [1, 7]: 0.18 µM; Selectivity index [1, 5]: >276"
"CC(=O)O[C@H]1CC[C@]2(C)C(C[C@H](OC(C)=O)[C@]3(C)C4=CC(=O)OC(c5ccoc5)[C@@]4(C)CCC23)C1(C)C (stereo partly drawn) [3beta,7beta-[…]]",72.2,–,2.5,–,–
"Clc1ccc(COC(Cn2ccnc2)c2ccc(Cl)cc2Cl)cc1 (stereo not drawn) [ECONAZOLE, 1-{2-[(4-chlorophenyl)methoxy]-2-(2,4-dichlorophenyl)ethyl}-1H-imidazole]",100,–,2.4,–,–
"COc1ccc2c(c1)OCC(Cc1ccc(OC)c(OC)c1)C2=O (stereo not drawn) [3-[(3,4-dimethoxyphenyl)methyl]-7-methoxy-3,4-dihydro-2H-1-benzopyran-4-one]",84.5,–,8.3,–,–
"COc1cc2ccc(=O)oc2c(O)c1O [FRAXETIN, 7,8-dihydroxy-6-methoxy-2H-chromen-2-one]",100,–,8.1,–,–

# Source: article PMC4102417 (PLoS Neglected Tropical Diseases, 2014)
